Patent US20070026408A1, “Materials and methods for analysis of atp-binding cassette transporter gene expression” (priority 2003, published 2007)
Structures can show the parent of a compound that is named as a salt.

Tests used:
Type in all cases: cell-based, human
Conditions in all cases: HepG2, doxorubicin HCl 25 nM, standard 11
[1] = tested on: abcB8; test: DT1 microarray drug screening, drug-treated HepG2: abcB8
Method: (§1) The labelled cDNA target preparation was thawed and the 150 μl added to 850 ul hybridisation buffer (500 mM sodium Phosphate pH 6.0, 1% SDS, 1% BSA, 1 mM EDTA) in a 1.5 ml microtube and heated at 95° C. for 10 min.

[2] = tested on: abcF2; test: DT1 microarray drug screening, drug-treated HepG2: abcF2
Method: as §1

[3] = tested on: abcA9; test: DT1 microarray drug screening, drug-treated HepG2: abcA9
Method: as §1

[4] = tested on: abcB2; test: DT1 microarray drug screening, drug-treated HepG2: abcB2
Method: as §1

[5] = tested on: abcG1; test: DT1 microarray drug screening, drug-treated HepG2: abcG1
Method: as §1

[6] = tested on: abcE1; test: DT1 microarray drug screening, drug-treated HepG2: abcE1
Method: as §1

[7] = tested on: abcD1; test: DT1 microarray drug screening, drug-treated HepG2: abcD1
Method: as §1

[8] = tested on: abcA8; test: DT1 microarray drug screening, drug-treated HepG2: abcA8
Method: as §1

[9] = tested on: abcB1; test: DT1 microarray drug screening, drug-treated HepG2: abcB1
Method: as §1

[10] = tested on: abcC5; test: DT1 microarray drug screening, drug-treated HepG2: abcC5
Method: as §1

[11] = tested on: abcD3; test: DT1 microarray drug screening, drug-treated HepG2: abcD3
Method: as §1

[12] = tested on: abcC2; test: DT1 microarray drug screening, drug-treated HepG2: abcC2
Method: as §1

[13] = tested on: abcF3; test: DT1 microarray drug screening, drug-treated HepG2: abcF3
Method: as §1

[14] = tested on: abcC8; test: DT1 microarray drug screening, drug-treated HepG2: abcC8
Method: as §1

[15] = tested on: abcA5; test: DT1 microarray drug screening, drug-treated HepG2: abcA5
Method: as §1

Structure (SMILES): COc1cccc2c1C(=O)c1c(O)c3c(c(O)c1C2=O)C[C@@](O)(C(=O)CO)C[C@@H]3O[C@H]1C[C@H](N)[C@H](O)[C@H](C)O1 [dox, doxorubicin HCl]
- relative level of abcB8 gene expression ([1]; 2 h): 8.004
- relative level of abcB8 gene expression ([1]; 4 h): 5.438
- relative level of abcB8 gene expression ([1]; 8 h): 5.353
- relative level of abcF2 gene expression ([2]; 2 h): 5.979
- relative level of abcF2 gene expression ([2]; 4 h): 4.068
- relative level of abcF2 gene expression ([2]; 8 h): 4.807
- relative level of abcA9 gene expression ([3]; 2 h): 7.825
- relative level of abcA9 gene expression ([3]; 4 h): 4.817
- relative level of abcA9 gene expression ([3]; 8 h): 5.72
- relative level of abcB2 gene expression ([4]; 2 h): 5.067
- relative level of abcB2 gene expression ([4]; 4 h): 3.715
- relative level of abcB2 gene expression ([4]; 8 h): 4.008
- relative level of abcG1 gene expression ([5]; 2 h): 5.472
- relative level of abcG1 gene expression ([5]; 4 h): 3.555
- relative level of abcG1 gene expression ([5]; 8 h): 3.839
- relative level of abcE1 gene expression ([6]; 2 h): 4.155
- relative level of abcE1 gene expression ([6]; 4 h): 2.794
- relative level of abcE1 gene expression ([6]; 8 h): 3.088
- relative level of abcD1 gene expression ([7]; 2 h): 4.477
- relative level of abcD1 gene expression ([7]; 4 h): 3.386
- relative level of abcD1 gene expression ([7]; 8 h): 3.516
- relative level of abcA8 gene expression ([8]; 2 h): 3.036
- relative level of abcA8 gene expression ([8]; 4 h): 1.786
- relative level of abcA8 gene expression ([8]; 8 h): 2.174
- relative level of abcB1 gene expression ([9]; 2 h): 6.735
- relative level of abcB1 gene expression ([9]; 4 h): 3.865
- relative level of abcB1 gene expression ([9]; 8 h): 4.759
- relative level of abcC5 gene expression ([10]; 2 h): 10.51
- relative level of abcC5 gene expression ([10]; 4 h): 6.29
- relative level of abcC5 gene expression ([10]; 8 h): 6.522
- relative level of abcD3 gene expression ([11]; 2 h): 2.099
- relative level of abcD3 gene expression ([11]; 4 h): 1.787
- relative level of abcD3 gene expression ([11]; 8 h): 1.733
- relative level of abcC2 gene expression ([12]; 2 h): 0.6141
- relative level of abcC2 gene expression ([12]; 4 h): 0.3603
- relative level of abcC2 gene expression ([12]; 8 h): 0.3548
- relative level of abcF3 gene expression ([13]; 2 h): 3.921
- relative level of abcF3 gene expression ([13]; 4 h): 2.795
- relative level of abcF3 gene expression ([13]; 8 h): 2.793
- relative level of abcC8 gene expression ([14]; 2 h): 0.3229
- relative level of abcC8 gene expression ([14]; 4 h): 0.2437
- relative level of abcC8 gene expression ([14]; 8 h): 0.2255
- relative level of abcA5 gene expression ([15]; 2 h): 3.302
- relative level of abcA5 gene expression ([15]; 4 h): 2.021
- relative level of abcA5 gene expression ([15]; 8 h): 2.451
